Reference: PubChem BioAssay AID1845217 (Molecular Pharmacology Branch, DTP, NCI, 2023)

Tested on: VA-ES-BJ tumor spheroid viability
Test: Anticancer human tumor VA-ES-BJ cell line growth inhibition;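 further: spheroids exposed to compounds for seven days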;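 on viability, T/C: percent of DMSO vehicle control viability so 100% = untreated growth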
Settings: spheroids with HUVEC and MSC; for IC50: curve of first compound; for viability, T/C: stronger effect = lower value
In short: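 Complex tumor spheroids combined malignant cells with endothelial cells and mesenchymal stem cells. DNA-damaging drugs and DNA repair inhibitors were tested alone and in combination, at half-log dilutions down from clinical Cmax (top 10 microM if Cmax unknown), 0.25% DMSO final.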

Cc1sc2c(c1C)C(c1ccc(Cl)cc1)=NC(CC(=O)Nc1ccc(O)cc1)c1nnc(C)n1-2 (stereo not given) + Cn1nnc2c(C(N)=O)ncn2c1=O
IC50 (second compound 1 µM): 103 nM
IC50 (second compound 3.16 µM): 93.7 nM
IC50 (second compound 10 µM): 83.1 nM
IC50 (second compound 31.6 µM): 80.6 nM
IC50 (second compound 100 µM): 68.6 nM
viability, T/C (second compound 1 µM, first compound 0.00949 µM): 83.5%
viability, T/C (second compound 1 µM, first compound 0.03 µM): 69%
viability, T/C (second compound 1 µM, first compound 0.0949 µM): 51.6%
viability, T/C (second compound 1 µM, first compound 0.3 µM): 33.5%
viability, T/C (second compound 1 µM, first compound 0.949 µM): 25.9%
viability, T/C (second compound 1 µM, first compound 3 µM): 17.1%
viability, T/C (second compound 3.16 µM, first compound 0.00949 µM): 81.3%
viability, T/C (second compound 3.16 µM, first compound 0.03 µM): 68.3%
viability, T/C (second compound 3.16 µM, first compound 0.0949 µM): 50.7%
viability, T/C (second compound 3.16 µM, first compound 0.3 µM): 31.1%
viability, T/C (second compound 3.16 µM, first compound 0.949 µM): 19.9%
viability, T/C (second compound 3.16 µM, first compound 3 µM): 17.7%
viability, T/C (second compound 10 µM, first compound 0.00949 µM): 81.2%
viability, T/C (second compound 10 µM, first compound 0.03 µM): 65.2%
viability, T/C (second compound 10 µM, first compound 0.0949 µM): 49.1%
viability, T/C (second compound 10 µM, first compound 0.3 µM): 30.8%
viability, T/C (second compound 10 µM, first compound 0.949 µM): 24.8%
viability, T/C (second compound 10 µM, first compound 3 µM): 15.8%
viability, T/C (second compound 31.6 µM, first compound 0.00949 µM): 81.1%
viability, T/C (second compound 31.6 µM, first compound 0.03 µM): 61.1%
viability, T/C (second compound 31.6 µM, first compound 0.0949 µM): 51.2%
viability, T/C (second compound 31.6 µM, first compound 0.3 µM): 31.9%
viability, T/C (second compound 31.6 µM, first compound 0.949 µM): 21.3%
viability, T/C (second compound 31.6 µM, first compound 3 µM): 12.4%
viability, T/C (second compound 100 µM, first compound 0.00949 µM): 91.2%
viability, T/C (second compound 100 µM, first compound 0.03 µM): 60.1%
viability, T/C (second compound 100 µM, first compound 0.0949 µM): 47.5%
viability, T/C (second compound 100 µM, first compound 0.3 µM): 29.5%
viability, T/C (second compound 100 µM, first compound 0.949 µM): 14.4%
viability, T/C (second compound 100 µM, first compound 3 µM): 7.67%

COc1ccc([C@@H](O)c2cc(-c3ncnc4cc(N5CCOCC5)ccc34)c(F)cc2Cl)nn1 + CC[C@@]1(O)C(=O)OCc2c1cc1n(c2=O)Cc2cc3c(CN(C)C)c(O)ccc3nc2-1
IC50 (second compound 0.003 µM): 949 nM
IC50 (second compound 0.00949 µM): 612 nM
IC50 (second compound 0.03 µM): 78.7 nM
IC50 (second compound 0.0949 µM): < 31.6 nM
IC50 (second compound 0.3 µM): < 31.6 nM
viability, T/C (second compound 0.003 µM, first compound 0.0316 µM): 94.8%
viability, T/C (second compound 0.003 µM, first compound 0.1 µM): 93.4%
viability, T/C (second compound 0.003 µM, first compound 0.316 µM): 71%
viability, T/C (second compound 0.003 µM, first compound 1 µM): 52.6%
viability, T/C (second compound 0.003 µM, first compound 3.16 µM): 19.9%
viability, T/C (second compound 0.003 µM, first compound 10 µM): 9.59%
viability, T/C (second compound 0.00949 µM, first compound 0.0316 µM): 89.4%
viability, T/C (second compound 0.00949 µM, first compound 0.1 µM): 77.2%
viability, T/C (second compound 0.00949 µM, first compound 0.316 µM): 65.4%
viability, T/C (second compound 0.00949 µM, first compound 1 µM): 40.6%
viability, T/C (second compound 0.00949 µM, first compound 3.16 µM): 15.8%
viability, T/C (second compound 0.00949 µM, first compound 10 µM): 8.03%
viability, T/C (second compound 0.03 µM, first compound 0.0316 µM): 51.3%
viability, T/C (second compound 0.03 µM, first compound 0.1 µM): 50.9%
viability, T/C (second compound 0.03 µM, first compound 0.316 µM): 40.5%
viability, T/C (second compound 0.03 µM, first compound 1 µM): 26.2%
viability, T/C (second compound 0.03 µM, first compound 3.16 µM): 13.8%
viability, T/C (second compound 0.03 µM, first compound 10 µM): 7.2%
viability, T/C (second compound 0.0949 µM, first compound 0.0316 µM): 8.47%
viability, T/C (second compound 0.0949 µM, first compound 0.1 µM): 9.28%
viability, T/C (second compound 0.0949 µM, first compound 0.316 µM): 9.08%
viability, T/C (second compound 0.0949 µM, first compound 1 µM): 8.66%
viability, T/C (second compound 0.0949 µM, first compound 3.16 µM): 7.19%
viability, T/C (second compound 0.0949 µM, first compound 10 µM): 6.29%
viability, T/C (second compound 0.3 µM, first compound 0.0316 µM): 6.47%
viability, T/C (second compound 0.3 µM, first compound 0.1 µM): 6.18%
viability, T/C (second compound 0.3 µM, first compound 0.316 µM): 7.16%
viability, T/C (second compound 0.3 µM, first compound 1 µM): 7.21%
viability, T/C (second compound 0.3 µM, first compound 3.16 µM): 6.83%
viability, T/C (second compound 0.3 µM, first compound 10 µM): 6.76%
